# Data as given in ChEMBL document CHEMBL2029294, “Evaluation of endo- and exo-aryl-substitutions and central scaffold modifications on diphenyl substituted alkanes as 5-lipoxygenase activating protein inhibitors” (Bioorg Med Chem Lett, 2012).
# Key:
# [1] = target: T1, Arachidonate 5-lipoxygenase-activating protein (Homo sapiens, UniProt P20292); experiment: Displacement of [125I]L-691,831 from 5-lipoxygenase-activating protein in human polymorphonuclear cells
# T1 sequence (P20292 whole entry): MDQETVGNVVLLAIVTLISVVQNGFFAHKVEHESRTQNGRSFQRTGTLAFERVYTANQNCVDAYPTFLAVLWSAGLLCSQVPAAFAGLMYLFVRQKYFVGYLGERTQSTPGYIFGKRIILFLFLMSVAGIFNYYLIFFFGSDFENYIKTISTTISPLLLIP
# [2] = target: T1, Arachidonate 5-lipoxygenase-activating protein; experiment: Inhibition of 5-lipoxygenase-activating protein in human polymorphonuclear cells assessed as inhibition of calcium ionophore-induced LTB4 production in presence of human whole blood; assay type: tissue-based
# [3] = Clearance in Sprague-Dawley rat at 1 mg/kg, iv and 2 mg/kg, po; assay type: ADME, organism-based; conditions: in vivo
# [4] = Volume of distribution in Sprague-Dawley rat at 1 mg/kg, iv and 2 mg/kg, po; assay type: ADME, organism-based; conditions: in vivo
# Rattus norvegicus = experiment: Dose normalised AUC in Sprague-Dawley rat at 1 mg/kg, iv; assay type: ADME, organism-based; set-up: dose 1 mg/kg, route intravenous; conditions: in vivo
# [5] = Cmax in Sprague-Dawley rat at 1 mg/kg, iv and 2 mg/kg, po; assay type: ADME, organism-based; conditions: in vivo
# [6] = Half life in Sprague-Dawley rat at 1 mg/kg, iv and 2 mg/kg, po; assay type: ADME, organism-based; conditions: in vivo
# [7] = Oral bioavailability in Sprague-Dawley rat at 2 mg/kg; assay type: ADME, organism-based; conditions: in vivo
Compound,IC50 [1] [nM],IC50 [2] [nM],also measured
COC(=O)c1ccc(OCc2ccc3ccccc3n2)cc1C(C)(C)c1ccccc1,58,> 9000,–
CCC(CC)(c1ccccc1)c1cc(OCc2ccc3ccccc3n2)ccc1C(=O)OC,96,> 9000,–
COC(=O)c1ccc(OCc2ccc3ccccc3n2)cc1C1(c2ccccc2)C2CCC1CC2 (centres undefined),5.6,1300,–
COC(=O)c1ccc(OCc2ccc3ccccc3n2)cc1C1(c2ccccc2)CCCCC1,15,1560,–
COC(=O)c1ccc(OCc2ccc3ccccc3n2)cc1C1(c2ccccc2)CCCC1,8.5,3700,–
COC(=O)c1ccc(OCc2ccc3ccccc3n2)cc1C1(c2ccccc2)CCC1,20,> 7000,–
COC(=O)c1ccc(OCc2ccc3ccccc3n2)cc1C1(c2ccccc2)CC(C)C1 (centres undefined),3.2,1100,–
COC(=O)c1ccc(OCc2ccc3ccccc3n2)cc1C1(c2ccccc2)CC(F)(F)C1,50,> 9000,–
COC(=O)c1ccc(OCc2ccc3ccccc3n2)cc1C1(c2ccccc2)CC(C)(C)C1,5.2,1400,–
O=c1[nH]nc(-c2ccc(OCc3ccc4ccccc4n3)cc2[C@@]2(c3ccccc3)C[C@H]3CC[C@H]2C3)o1,0.8,469,clearance [3]: 7.3 mL/min/kg; Vd [4]: 1 L/kg; AUC/dose (Rattus norvegicus): 0.58 µM·kg·h/mg; Cmax [5]: 400 nM; half-life [6]: 1 h; bioavailability [7]: 12%
COc1cccc([C@]2(c3cc(OCc4ccc5ccccc5n4)ccc3-c3n[nH]c(=O)o3)C[C@H]3CC[C@H]2C3)c1,1.1,375,clearance [3]: 7.2 mL/min/kg; Vd [4]: 0.7 L/kg; AUC/dose (Rattus norvegicus): 0.79 µM·kg·h/mg; Cmax [5]: 670 nM; half-life [6]: 1.2 h; bioavailability [7]: 17%
CC(C)(C)[C@@H](c1ccccc1)c1cc(OCc2ccc3ccccc3n2)ccc1-c1n[nH]c(=O)o1,1.9,534,clearance [3]: 29 mL/min/kg; Vd [4]: 5.3 L/kg; AUC/dose (Rattus norvegicus): 0.34 µM·kg·h/mg; Cmax [5]: 250 nM; half-life [6]: 4.3 h; bioavailability [7]: 27%
CC1(C)CC(c2ccccc2)(c2cc(OCc3ccc4ccccc4n3)ccc2-c2n[nH]c(=O)o2)C1,3.6,834,clearance [3]: 71 mL/min/kg; Vd [4]: 7.5 L/kg; AUC/dose (Rattus norvegicus): 0.05 µM·kg·h/mg; Cmax [5]: 10 nM; half-life [6]: 1.7 h; bioavailability [7]: 9%
CC1CC(c2ccccc2)(c2cc(OCc3ccc4ccccc4n3)ccc2-c2n[nH]c(=O)o2)C1 (mixture of isomers),2.6,695,clearance [3]: 32 mL/min/kg; Vd [4]: 3.1 L/kg; AUC/dose (Rattus norvegicus): 0.19 µM·kg·h/mg; Cmax [5]: 120 nM; half-life [6]: 2 h; bioavailability [7]: 17%
COC(=O)c1ccc(OCc2ccc3ccccc3n2)cc1[C@]1(c2ccccc2)C[C@H]2CC[C@H]1C2 (racemic),2.1,460,–
COC(=O)c1ccc(OCc2ccc3ccccc3n2)cc1[C@]1(c2ccccc2F)C[C@H]2CC[C@H]1C2 (racemic),4,1600,–
COC(=O)c1ccc(OCc2ccc3ccccc3n2)cc1[C@]1(c2cccc(F)c2)C[C@H]2CC[C@H]1C2 (racemic),2.3,472,–
COC(=O)c1ccc(OCc2ccc3ccccc3n2)cc1[C@]1(c2ccc(F)cc2)C[C@H]2CC[C@H]1C2 (racemic),9.5,1400,–
COC(=O)c1ccc(OCc2ccc3ccccc3n2)cc1[C@]1(c2cccc(C)c2)C[C@H]2CC[C@H]1C2 (racemic),5.5,940,–
COC(=O)c1ccc(OCc2ccc3ccccc3n2)cc1[C@]1(c2cccc(C(F)(F)F)c2)C[C@H]2CC[C@H]1C2 (racemic),7.4,> 8600,–
COC(=O)c1ccc(OCc2ccc3ccccc3n2)cc1[C@]1(c2cccc(OC)c2)C[C@H]2CC[C@H]1C2 (racemic),2.5,322,–

Compound,IC50 [1] [nM],IC50 [2] [nM],also measured
COC(=O)c1ccc(OCc2ccc3ccccc3n2)cc1[C@]1(c2cc(F)cc(F)c2)C[C@H]2CC[C@H]1C2 (racemic),3.4,1320,–
COC(=O)c1ccc(OCc2ccc3ccccc3n2)cc1[C@]1(c2cc(C)cc(C)c2)C[C@H]2CC[C@H]1C2 (racemic),3.5,2300,–
COC(=O)c1ccc(OCc2ccc3ccccc3n2)cc1C(c1ccccc1)C1CCCCC1 (racemic),16,> 9000,–
COC(=O)c1ccc(OCc2ccc3ccccc3n2)cc1C(c1ccccc1)C(C)(C)C (racemic),5.5,670,–
COC(=O)c1ccc(OCc2ccc3ccccc3n2)cc1C(CC(C)(C)C)c1ccccc1 (racemic),3,2000,–
O=C(Nc1cccnc1)c1ccc(OCc2ccc3ccccc3n2)cc1[C@]1(c2ccccc2)C[C@H]2CC[C@H]1C2 (racemic),5.8,2160,–
O=C(NC1CCCC1)c1ccc(OCc2ccc3ccccc3n2)cc1[C@]1(c2ccccc2)C[C@H]2CC[C@H]1C2 (racemic),48,964,–
O=C(c1ccc(OCc2ccc3ccccc3n2)cc1[C@]1(c2ccccc2)C[C@H]2CC[C@H]1C2)N1CCCC1 (racemic),7.1,1730,–
Cc1noc(-c2ccc(OCc3ccc4ccccc4n3)cc2[C@]2(c3ccccc3)C[C@H]3CC[C@H]2C3)n1 (racemic),6.3,1020,–
Nc1nnc(-c2ccc(OCc3ccc4ccccc4n3)cc2[C@]2(c3ccccc3)C[C@H]3CC[C@H]2C3)o1 (racemic),2.2,258,–
O=c1[nH]nc(-c2ccc(OCc3ccc4ccccc4n3)cc2[C@]2(c3ccccc3)C[C@H]3CC[C@H]2C3)o1 (racemic),2.5,796,–
S=c1[nH]nc(-c2ccc(OCc3ccc4ccccc4n3)cc2[C@]2(c3ccccc3)C[C@H]3CC[C@H]2C3)o1 (racemic),1.1,753,–
Cc1nnc(-c2ccc(OCc3ccc4ccccc4n3)cc2[C@]2(c3ccccc3)C[C@H]3CC[C@H]2C3)o1 (racemic),5,456,–
c1ccc([C@@]2(c3cc(OCc4ccc5ccccc5n4)ccc3-c3nnco3)C[C@H]3CC[C@H]2C3)cc1 (racemic),2.9,376,–
c1ccc([C@@]2(c3cc(OCc4ccc5ccccc5n4)ccc3-c3ncon3)C[C@H]3CC[C@H]2C3)cc1 (racemic),5.4,721,–
Cc1nc(-c2ccc(OCc3ccc4ccccc4n3)cc2[C@]2(c3ccccc3)C[C@H]3CC[C@H]2C3)no1 (racemic),1.6,189,–
c1ccc([C@@]2(c3cc(OCc4ccc5ccccc5n4)ccc3-c3nnn[nH]3)C[C@H]3CC[C@H]2C3)cc1 (racemic),2.9,5720,–
Cn1nnc(-c2ccc(OCc3ccc4ccccc4n3)cc2[C@]2(c3ccccc3)C[C@H]3CC[C@H]2C3)n1 (racemic),2.8,313,–
CCn1nnc(-c2ccc(OCc3ccc4ccccc4n3)cc2[C@]2(c3ccccc3)C[C@H]3CC[C@H]2C3)n1 (racemic),2.4,177,–
CC(C)n1nnc(-c2ccc(OCc3ccc4ccccc4n3)cc2[C@]2(c3ccccc3)C[C@H]3CC[C@H]2C3)n1 (racemic),1.7,149,–
FC(F)n1nnc(-c2ccc(OCc3ccc4ccccc4n3)cc2[C@]2(c3ccccc3)C[C@H]3CC[C@H]2C3)n1 (racemic),2.4,502,–
